Data reported in PMC9851200, “Multiparameter phenotypic screening for endogenous TFEB and TFE3 translocation identifies novel chemical series modulating lysosome function” (Autophagy, 2022).
Like-named read-outs stand apart in the source and are kept apart here.

Legend:
Experiment in all cases: biochemical
Type in all cases: binding
[1] = molecular target: T1, cellular kinases of SH-SY5Y cells (Homo sapiens, UniProt O14920); conditions: 2µM; SH-SY5Y cells; Labeling Site Lys2; DLKPENIVLQQGEQR; read-out: KiNativ in-cell binding, % Inhibition, IKBKB/IKKb
T1 construct: endogenous in cells; host or cells: SH-SY5Y
Text: (§1) As KINOMEscan is an in vitro assay, and as different cell types have variable kinase expression profiles we sought to determine the kinase binding profile in our SH-SY5Y TFEB-relocalization cell model. […] Bound kinases were pulled down and analyzed by mass spectrometry to determine the in situ kinase binding profile for each compound.

[2] = molecular target: T2, cellular kinases of SH-SY5Y cells (Homo sapiens, UniProt O14936); conditions: 2µM; SH-SY5Y cells; Labeling Site Lys1; ETGQQFAVKIVDVAK; read-out: KiNativ in-cell binding, % Inhibition, CASK
T2 construct: endogenous in cells; host or cells: SH-SY5Y
T2 sequence (O14936 whole entry): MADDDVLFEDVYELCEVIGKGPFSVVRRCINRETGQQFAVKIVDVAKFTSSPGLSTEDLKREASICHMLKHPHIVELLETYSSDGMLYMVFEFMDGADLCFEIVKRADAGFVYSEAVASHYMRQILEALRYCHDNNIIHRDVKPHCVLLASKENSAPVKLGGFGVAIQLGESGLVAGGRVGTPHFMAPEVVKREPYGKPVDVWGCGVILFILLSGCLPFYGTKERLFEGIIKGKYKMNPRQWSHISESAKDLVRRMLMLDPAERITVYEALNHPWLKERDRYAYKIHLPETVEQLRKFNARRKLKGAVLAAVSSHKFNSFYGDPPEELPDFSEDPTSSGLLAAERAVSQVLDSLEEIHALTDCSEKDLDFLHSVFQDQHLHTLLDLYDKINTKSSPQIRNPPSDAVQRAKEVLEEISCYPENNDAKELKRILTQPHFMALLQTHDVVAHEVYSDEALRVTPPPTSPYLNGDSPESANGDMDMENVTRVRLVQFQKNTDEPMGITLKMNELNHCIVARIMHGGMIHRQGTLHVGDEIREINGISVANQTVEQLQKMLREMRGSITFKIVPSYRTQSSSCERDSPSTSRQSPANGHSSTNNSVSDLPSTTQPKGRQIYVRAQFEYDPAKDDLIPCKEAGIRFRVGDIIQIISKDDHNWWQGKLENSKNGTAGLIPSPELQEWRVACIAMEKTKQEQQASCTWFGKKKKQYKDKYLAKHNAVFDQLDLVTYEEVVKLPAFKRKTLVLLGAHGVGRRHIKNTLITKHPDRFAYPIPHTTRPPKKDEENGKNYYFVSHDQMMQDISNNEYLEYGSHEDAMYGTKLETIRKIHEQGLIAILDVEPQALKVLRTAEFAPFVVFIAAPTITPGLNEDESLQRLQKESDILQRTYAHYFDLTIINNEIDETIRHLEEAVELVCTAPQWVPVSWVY
Text: as §1

[3] = molecular target: cellular kinases of SH-SY5Y cells (Homo sapiens, UniProt P00533); conditions: 2µM, SH-SY5Y cells, read-out: KiNativ in-cell binding, % Inhibition, EGFR, EGFR-L858R
cellular kinases of SH-SY5Y cells (Homo sapiens, UniProt P00533), sequence (P00533 25-1210): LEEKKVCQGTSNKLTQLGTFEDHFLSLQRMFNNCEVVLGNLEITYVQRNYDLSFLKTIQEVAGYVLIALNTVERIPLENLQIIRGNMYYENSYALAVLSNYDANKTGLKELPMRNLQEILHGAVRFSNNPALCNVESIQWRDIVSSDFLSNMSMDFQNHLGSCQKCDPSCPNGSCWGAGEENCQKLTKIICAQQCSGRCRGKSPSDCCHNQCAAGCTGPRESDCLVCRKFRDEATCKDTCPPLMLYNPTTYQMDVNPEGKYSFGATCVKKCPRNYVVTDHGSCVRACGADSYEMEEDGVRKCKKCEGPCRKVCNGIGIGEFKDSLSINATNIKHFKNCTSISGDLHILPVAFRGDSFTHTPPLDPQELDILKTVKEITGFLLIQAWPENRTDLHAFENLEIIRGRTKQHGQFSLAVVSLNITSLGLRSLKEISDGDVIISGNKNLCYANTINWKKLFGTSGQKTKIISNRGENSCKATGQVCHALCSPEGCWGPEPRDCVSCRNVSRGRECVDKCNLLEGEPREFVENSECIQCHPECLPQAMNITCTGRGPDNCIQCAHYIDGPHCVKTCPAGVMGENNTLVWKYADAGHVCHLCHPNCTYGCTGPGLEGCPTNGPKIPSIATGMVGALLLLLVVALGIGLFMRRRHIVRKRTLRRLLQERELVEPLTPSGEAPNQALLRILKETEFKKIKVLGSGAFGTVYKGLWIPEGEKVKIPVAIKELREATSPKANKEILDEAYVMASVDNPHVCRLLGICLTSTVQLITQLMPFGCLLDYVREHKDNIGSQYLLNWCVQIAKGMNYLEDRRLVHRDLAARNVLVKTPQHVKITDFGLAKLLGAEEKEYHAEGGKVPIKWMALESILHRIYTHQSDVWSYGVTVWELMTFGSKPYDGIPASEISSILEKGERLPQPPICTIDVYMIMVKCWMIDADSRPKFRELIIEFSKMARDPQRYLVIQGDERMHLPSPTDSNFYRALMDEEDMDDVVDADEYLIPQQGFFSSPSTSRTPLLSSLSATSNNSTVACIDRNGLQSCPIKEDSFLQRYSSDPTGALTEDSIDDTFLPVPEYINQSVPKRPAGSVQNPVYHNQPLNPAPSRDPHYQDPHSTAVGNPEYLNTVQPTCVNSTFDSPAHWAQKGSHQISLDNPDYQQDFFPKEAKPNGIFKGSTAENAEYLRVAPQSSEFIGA
Text: as §1

[4] = molecular target: cellular kinases of SH-SY5Y cells (Homo sapiens, UniProt P11802); conditions: 2µM; SH-SY5Y cells; Labeling Site Lys2; DLKPENILVTSGGTVK; read-out: KiNativ in-cell binding, % Inhibition, CDK4
Text: as §1

[5] = molecular target: cellular kinases of SH-SY5Y cells (Homo sapiens, UniProt P27361); conditions: 2µM; SH-SY5Y cells; Labeling Site Lys2; DLKPSNLLINTTCDLK; read-out: KiNativ in-cell binding, % Inhibition, MAPK3/Erk1
Text: as §1

[6] = molecular target: T3, cellular kinases of SH-SY5Y cells (Homo sapiens, UniProt P46734); conditions: 2µM, SH-SY5Y cells
T3 sequence (P46734 1-347): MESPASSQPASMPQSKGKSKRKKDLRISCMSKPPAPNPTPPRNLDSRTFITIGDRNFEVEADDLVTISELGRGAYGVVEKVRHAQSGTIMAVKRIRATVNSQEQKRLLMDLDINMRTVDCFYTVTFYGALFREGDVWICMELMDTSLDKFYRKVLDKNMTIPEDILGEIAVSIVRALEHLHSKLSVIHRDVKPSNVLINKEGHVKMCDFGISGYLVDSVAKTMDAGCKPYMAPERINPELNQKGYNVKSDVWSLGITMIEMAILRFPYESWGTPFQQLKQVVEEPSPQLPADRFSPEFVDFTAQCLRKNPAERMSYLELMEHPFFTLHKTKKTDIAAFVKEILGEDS
Text: as §1

[7] = molecular target: cellular kinases of SH-SY5Y cells (Homo sapiens, UniProt P49840); conditions: 2µM; SH-SY5Y cells; labeling site Lys2; peptide DIKPQNLLVDPDTAVLK
Text: as §1

[8] = molecular target: T4, cellular kinases of SH-SY5Y cells (Homo sapiens, UniProt P78356); conditions: 2µM; SH-SY5Y cells; Labeling Site ATP; AKDLPTFKDNDFLNEGQK; read-out: KiNativ in-cell binding, % Inhibition, PIP4K2B
T4 construct: endogenous in cells; host or cells: SH-SY5Y
Text: as §1

[9] = molecular target: T5, cellular kinases of SH-SY5Y cells (Homo sapiens, UniProt Q00537); conditions: 2µM; SH-SY5Y cells; Labeling Site Lys2; DLKPQNLLINEK; read-out: KiNativ in-cell binding, % Inhibition, CDK17/PCTAIRE2
T5 construct: endogenous in cells; host or cells: SH-SY5Y
T5 sequence (Q00537 whole entry): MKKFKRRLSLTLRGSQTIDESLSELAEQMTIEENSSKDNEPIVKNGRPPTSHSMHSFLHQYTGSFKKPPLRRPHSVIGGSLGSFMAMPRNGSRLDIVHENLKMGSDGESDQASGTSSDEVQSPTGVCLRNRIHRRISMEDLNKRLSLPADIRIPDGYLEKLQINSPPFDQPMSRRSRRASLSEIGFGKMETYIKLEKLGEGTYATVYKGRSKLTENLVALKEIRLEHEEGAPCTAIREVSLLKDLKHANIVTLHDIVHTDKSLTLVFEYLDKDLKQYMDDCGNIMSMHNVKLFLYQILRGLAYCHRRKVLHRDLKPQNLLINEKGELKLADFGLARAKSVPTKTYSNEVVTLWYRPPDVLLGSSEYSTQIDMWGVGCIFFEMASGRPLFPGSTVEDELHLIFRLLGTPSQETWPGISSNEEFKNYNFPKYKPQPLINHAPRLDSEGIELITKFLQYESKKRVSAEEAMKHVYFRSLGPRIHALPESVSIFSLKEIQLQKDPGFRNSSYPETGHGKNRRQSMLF
Text: as §1

[10] = molecular target: T6, cellular kinases of SH-SY5Y cells (Homo sapiens, UniProt Q13177); conditions: 2µM; SH-SY5Y cells; Labeling Site Other; KNPQAVLDVLKFYDSNTVK; read-out: KiNativ in-cell binding, % Inhibition, PAK2
T6 construct: endogenous in cells; host or cells: SH-SY5Y
T6 sequence (Q13177 whole entry): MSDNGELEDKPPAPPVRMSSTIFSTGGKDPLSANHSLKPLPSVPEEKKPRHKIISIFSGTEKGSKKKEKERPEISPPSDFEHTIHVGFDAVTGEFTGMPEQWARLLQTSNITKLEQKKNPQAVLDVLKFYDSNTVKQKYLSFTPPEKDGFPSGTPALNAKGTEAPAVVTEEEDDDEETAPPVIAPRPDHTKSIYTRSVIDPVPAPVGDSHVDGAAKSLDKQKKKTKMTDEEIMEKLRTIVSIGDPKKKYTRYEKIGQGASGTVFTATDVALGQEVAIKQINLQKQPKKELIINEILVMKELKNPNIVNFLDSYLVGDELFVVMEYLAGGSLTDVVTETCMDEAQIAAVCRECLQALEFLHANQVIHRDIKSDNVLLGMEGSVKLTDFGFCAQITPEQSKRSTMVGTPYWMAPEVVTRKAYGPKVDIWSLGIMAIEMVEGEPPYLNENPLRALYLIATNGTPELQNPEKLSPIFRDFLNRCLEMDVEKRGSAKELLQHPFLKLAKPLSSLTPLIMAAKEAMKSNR
Text: as §1

[11] = molecular target: T7, cellular kinases of SH-SY5Y cells (Homo sapiens, UniProt Q13418); conditions: 2µM, SH-SY5Y cells
T7 construct: endogenous in cells; host or cells: SH-SY5Y
T7 sequence (Q13418 whole entry): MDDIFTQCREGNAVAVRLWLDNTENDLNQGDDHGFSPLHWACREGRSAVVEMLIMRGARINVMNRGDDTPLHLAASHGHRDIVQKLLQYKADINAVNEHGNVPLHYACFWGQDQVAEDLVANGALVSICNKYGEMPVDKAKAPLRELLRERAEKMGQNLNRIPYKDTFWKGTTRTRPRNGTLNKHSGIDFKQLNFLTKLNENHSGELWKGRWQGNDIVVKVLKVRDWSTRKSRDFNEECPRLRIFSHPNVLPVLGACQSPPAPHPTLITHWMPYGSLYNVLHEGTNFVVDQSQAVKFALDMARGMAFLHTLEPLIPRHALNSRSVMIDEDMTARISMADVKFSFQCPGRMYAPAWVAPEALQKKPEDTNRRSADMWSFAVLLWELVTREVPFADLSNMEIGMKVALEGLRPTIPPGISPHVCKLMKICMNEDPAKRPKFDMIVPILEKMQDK
Text: as §1

[12] = molecular target: cellular kinases of SH-SY5Y cells (Homo sapiens, UniProt Q14012); conditions: 2µM; SH-SY5Y cells; labeling site Lys1; peptide LVAIKCIAK
cellular kinases of SH-SY5Y cells (Homo sapiens, UniProt Q14012), sequence (Q14012 whole entry): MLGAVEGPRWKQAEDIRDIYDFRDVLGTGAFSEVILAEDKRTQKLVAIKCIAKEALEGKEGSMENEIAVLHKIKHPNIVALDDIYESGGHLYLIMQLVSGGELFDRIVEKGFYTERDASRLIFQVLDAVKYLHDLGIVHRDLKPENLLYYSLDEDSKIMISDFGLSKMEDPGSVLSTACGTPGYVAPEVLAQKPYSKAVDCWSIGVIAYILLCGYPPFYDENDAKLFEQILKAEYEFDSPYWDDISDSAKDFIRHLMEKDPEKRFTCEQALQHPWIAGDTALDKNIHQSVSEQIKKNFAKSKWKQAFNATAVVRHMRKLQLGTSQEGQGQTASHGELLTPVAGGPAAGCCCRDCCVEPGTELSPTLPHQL
Text: as §1

[13] = molecular target: T8, cellular kinases of SH-SY5Y cells (Homo sapiens, UniProt Q86UX6); conditions: 2µM; SH-SY5Y cells; Labeling Site Lys2; DVKPDNILLDER; read-out: KiNativ in-cell binding, % Inhibition, STK32C/YANK3
T8 construct: endogenous in cells; host or cells: SH-SY5Y
Text: as §1

[14] = molecular target: cellular kinases of SH-SY5Y cells (Homo sapiens, UniProt Q8TDX7); conditions: 2µM; SH-SY5Y cells; labeling site Lys1; peptide AACLLDGVPVALKK
Text: as §1

[15] = molecular target: cellular kinases of SH-SY5Y cells (Homo sapiens, UniProt Q96RR4); conditions: 2µM, SH-SY5Y cells
cellular kinases of SH-SY5Y cells (Homo sapiens, UniProt Q96RR4), sequence (Q96RR4 whole entry): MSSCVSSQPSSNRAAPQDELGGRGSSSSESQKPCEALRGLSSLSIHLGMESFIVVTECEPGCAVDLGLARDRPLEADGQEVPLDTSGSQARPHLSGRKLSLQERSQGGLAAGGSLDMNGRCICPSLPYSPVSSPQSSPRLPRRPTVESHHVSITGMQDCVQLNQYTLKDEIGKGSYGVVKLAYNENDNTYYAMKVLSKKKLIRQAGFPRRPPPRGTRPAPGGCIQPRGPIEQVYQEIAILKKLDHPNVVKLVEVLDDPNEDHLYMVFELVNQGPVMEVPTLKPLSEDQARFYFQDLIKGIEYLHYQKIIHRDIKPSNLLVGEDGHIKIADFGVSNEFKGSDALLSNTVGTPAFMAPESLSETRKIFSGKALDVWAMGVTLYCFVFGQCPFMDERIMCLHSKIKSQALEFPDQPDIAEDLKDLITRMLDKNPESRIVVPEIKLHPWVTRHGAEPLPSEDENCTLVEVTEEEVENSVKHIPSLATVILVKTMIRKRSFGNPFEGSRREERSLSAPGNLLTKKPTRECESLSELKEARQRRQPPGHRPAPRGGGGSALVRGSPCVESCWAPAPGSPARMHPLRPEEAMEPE
Text: as §1

[16] = molecular target: cellular kinases of SH-SY5Y cells (Homo sapiens, UniProt Q9NWZ3); conditions: 2µM, SH-SY5Y cells
cellular kinases of SH-SY5Y cells (Homo sapiens, UniProt Q9NWZ3), sequence (Q9NWZ3 whole entry): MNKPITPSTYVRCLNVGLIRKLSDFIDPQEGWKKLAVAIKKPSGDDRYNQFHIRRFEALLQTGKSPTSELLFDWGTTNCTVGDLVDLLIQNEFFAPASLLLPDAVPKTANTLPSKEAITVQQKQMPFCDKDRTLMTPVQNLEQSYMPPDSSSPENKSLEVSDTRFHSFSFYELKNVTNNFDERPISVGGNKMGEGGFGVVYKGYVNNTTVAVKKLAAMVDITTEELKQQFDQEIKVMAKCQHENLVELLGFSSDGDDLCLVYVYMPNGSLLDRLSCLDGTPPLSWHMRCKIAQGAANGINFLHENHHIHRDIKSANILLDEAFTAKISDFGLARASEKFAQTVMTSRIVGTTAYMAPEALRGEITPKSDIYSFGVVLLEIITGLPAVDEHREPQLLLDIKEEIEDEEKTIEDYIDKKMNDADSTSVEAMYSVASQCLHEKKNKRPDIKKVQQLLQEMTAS
Text: as §1

[17] = molecular target: T9, cellular kinases of SH-SY5Y cells (Homo sapiens, UniProt Q9Y2I7); conditions: 2µM; SH-SY5Y cells; Labeling Site ATP; GGKSGAAFYATEDDRFILK; read-out: KiNativ in-cell binding, % Inhibition, PIKFYVE
T9 construct: endogenous in cells; host or cells: SH-SY5Y
Text: as §1

Cc1cccc(-c2nc(Nc3ccc4ncsc4c3)c3ccccc3n2)n1 [NK140]
inhibition at 2 µM [1]: -43% | inhibition at 2 µM [2]: 43% | inhibition at 2 µM ([3]; Labeling Site Activation Loop, LLGAEEKEYHAEGGKVPIK): 33.5% | inhibition at 2 µM ([3]; Labeling Site Lys1, IPVAIKELR): 14.4% | inhibition at 2 µM [4]: -19.8% | inhibition at 2 µM [5]: 32.4% | inhibition at 2 µM ([6]; Labeling Site Activation Loop, MCDFGISGYLVDSVAKTMDAGCKPYMAPER, read-out: KiNativ in-cell binding, % Inhibition, MAP2K3): 2.5% | KiNativ in-cell binding, MAP2K3 ([6]; labeling site Lys1, peptide HAQSGTIMAVKR): -144.3 | KiNativ in-cell binding, MAP2K3 ([6]; labeling site Lys2, peptide DVKPSNVLINK): -182.7 | KiNativ in-cell binding, GSK3A [7]: 7.1 | inhibition at 2 µM [8]: 27.3% | inhibition at 2 µM [9]: 13.2% | inhibition at 2 µM [10]: 42.4% | inhibition at 2 µM ([11]; Labeling Site Protein Kinase Domain, ISMADVKFSFQCPGR, read-out: KiNativ in-cell binding, % Inhibition, ILK): -31.8% | KiNativ in-cell binding, ILK ([11]; labeling site Lys1, peptide WQGNDIVVKVLK): -23.6 | KiNativ in-cell binding, CaMK1 [12]: -56.2 | inhibition at 2 µM [13]: -34.7% | KiNativ in-cell binding, NEK7 [14]: -3.8 | inhibition at 2 µM ([15]; Labeling Site Lys1, LAYNENDNTYYAMKVLSK, read-out: KiNativ in-cell binding, % Inhibition, CaMKK2): -64% | KiNativ in-cell binding, CaMKK2 ([15]; labeling site Lys2, peptide DIKPSNLLVGEDGHIK): -31.8 | inhibition at 2 µM ([16]; Labeling Site Lys1, GYVNNTTVAVKK, read-out: KiNativ in-cell binding, % Inhibition, IRAK4): -5.5% | KiNativ in-cell binding, IRAK4 ([16]; labeling site Lys2, peptide DIKSANILLDEAFTAK): -14.3 | inhibition at 2 µM [17]: 15.6%
